Measurements published in PubChem BioAssay AID179 (DTP/NCI, 2004).
Active and inactive are the calls of the source.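 Rule for the calls: active = compounds giving half or more protection of infected cells from virus-caused growth loss, again on retest; inactive = the rest.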 Where a SMILES comes first, the peptide text is derived from it.

Test system: CEM cells HIV-1 protection, formazan growth assay
Test: NCI AIDS Antiviral Assay
Details: for IC50: measured here: growth of uninfected CEM cells
Outline: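 Category rules: moderately active means at least 50% protection on retest, and confirmed active means 100% protection reproducibly. The underlying data came from a formazan growth assay in HIV-1-infected CEM cells.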

Row | Compound | EC50 [µM] | IC50 [µM] | outcome
1 | C1=Cc2nc1c(-c1ccccc1)c1ccc([n-]1)c(-c1ccccc1)c1nc(c(-c3ccncc3)c3ccc([n-]3)c2-c2ccccc2)C=C1.C1=Cc2nc1c(-c1ccccc1)c1ccc([n-]1)c(-c1ccccc1)c1nc(c(-c3ccncc3)c3ccc([n-]3)c2-c2ccccc2)C=C1.C1=Cc2nc1c(-c1ccccc1)c1ccc([n-]1)c(-c1ccccc1)c1nc(c(-c3ccncc3)c3ccc([n-]3)c2-c2ccccc2)C=C1.C1=Cc2nc1c(-c1ccccc1)c1ccc([n-]1)c(-c1ccccc1)c1nc(c(-c3ccncc3)c3ccc([n-]3)c2-c2ccccc2)C=C1.O=S(=O)([O-])C(F)(F)F.[Pt+2].[Zn+2].[Zn+2].[Zn+2].[Zn+2] | > 25.1 | > 25.1 | 
2 | CCN(Cc1ccccc1)c1ccc(/C=C/c2nccc3ccccc23)cc1 | > 14.5 | 14.1 | 
3 | Cc1cccc2c(N)c3cccc(C(=O)NCCN(C)C)c3nc12 | > 200 | 0.0631 | 
4 | N#CC(C(=O)CCC(=O)Nc1ccc(Cl)cc1)c1ccccc1Cl (centres undefined) | > 186 | > 186 | 
5 | COc1ccccc1N/N=c1\c2nc3ccccc3nc1n(-c1ccccc1C)c(=S)n2-c1ccc(Cl)cc1 | > 200 | 178 | 
6 | O=C1c2ccccc2C(=O)c2sc(Nc3ccc([N+](=O)[O-])cc3)nc21 | > 10.7 | > 10.7 | 
7 | O=CC(O)C(O)C(O)C(O)COP(=O)(O)Cc1ccccc1 (centres undefined) | > 200 | > 200 | 
8 | CCO[C@H]1O[C@@H]2OC3(C)CCC4[C@H](C)CCC([C@H]1C)[C@]42OO3 (some centres undefined) | > 200 | 35.5 | 
9 | CCCCCCCCCCCCCCCc1cccc(O)c1C(=O)O |  |  | inactive
10 | c1ccc2c(c1)nnn2CN1CCOCC1 |  |  | inactive
11 | CC1(C)CC2=C(CC3C4C=C5CC(C)(C)OC(=O)C5(C4)C23)C(=O)O1 (centres undefined) | > 87.1 | > 87.1 | 
12 | CCCCCOC(=O)c1cccc(NC(=O)CN(CC)CC)c1 | > 200 | 95.5 | 
13 | CSC1=NC=C(C#N)C2=NC(c3cccs3)NN12 (centres undefined) | > 339 | 20.4 | 
14 | Cc1ccc2ccc3ccc(C)nc3c2n1.Cc1ccc2ccc3ccc(C)nc3c2n1.O=C1OC(C(O)C[O-])C(O)=C1O.[Cu+] | > 12.6 | 0.0871 | 
15 | Oc1c(CN2CCOCC2)ccc2ccccc12 | > 200 | 191 | 
16 | CCCCCCCCCCC(C)CCCCCCC(=O)O (centres undefined) |  |  | inactive
17 | Cc1cc2ccccc2oc(=O)/c1=N\Nc1ccccc1 | > 200 | 34.7 | 
18 | C=C1CN(S(=O)(=O)c2ccc(C)cc2)CCN(C(=O)OC(C)(C)C)CCN(S(=O)(=O)c2ccc(C)cc2)C1 | > 200 | 20 | 
19 | CCC(C)C(NC(=O)C(CCCN=C(N)N)NC(=O)C(CC(=O)O)NC(=O)C(Cc1ccc(O)cc1)NC(=O)C(N)CC(C)C)C(=O)NC(C(=O)NC(CC(C)C)C(=O)NC(CCCN=C(N)N)C(=O)NC(Cc1ccc(O)cc1)C(=O)O)C(C)CC (centres undefined) (H-LYDRIILRY-OH; configuration not given here) | > 10.2 | > 10.2 | 
20 | COc1ccc2c(c1)OCC1Cc3ccccc3OC21 (centres undefined) | > 200 | 53.7 | 
21 | O=C(/C=C/c1ccc(O)c(O)c1)OC1CC(O)(C(=O)O)CC(O)C1O (centres undefined) | > 200 | 91.2 | 
22 | O=C1Cc2ccccc2CCc2ccccc21 | 135 | > 200 | 
23 | CC(C1CCCC1=O)C1CCCC1=O (centres undefined) |  |  | inactive
24 | N#CC(C#N)=c1ccc(=C(C#N)C#N)c2nsnc12 | > 38 | > 38 | 
25 | Cn1cnc2c(C#N)c(C#N)nn2c1=O | > 200 | > 200 | 

Row | Compound | EC50 [µM] | IC50 [µM] | outcome
26 | N#CC12CCC(O)C(CC1)C2=O (centres undefined) |  |  | inactive
27 | CCSC1=N/C(=C/c2ccccc2O)C(Cl)=N1 | 50.1 | > 200 | 
28 | NC(=O)c1n[nH]n(-c2ccccc2)c1=O | > 200 | > 200 | 
29 | O=C1CN(c2ccccc2)CC(=O)N2C(c3ccccc3)CCCN12 (centres undefined) |  |  | inactive
30 | CSc1nc2c3ccccc3ccn2c1C(=O)N/N=C/c1ccccc1 | > 100 | > 100 | 
31 | Cc1cccc(C)c1N1C(=O)C2c3[nH]c4ccccc4c3C3CCC(C(C)(C)C)CC3C2C1=O (centres undefined) | > 200 | 12.3 | 
32 | CCOC(=O)C1NCCc2c1[nH]c1ccccc21 (centres undefined) | > 67.6 | 44.7 | 
33 | COC1(OC)CCCCC2c3cccc(OC(C)=O)c3C21OC(C)=O (centres undefined) | 72.4 | 214 | 
34 | C=Cc1c2[n-]c(c1C)/C=c1\[n-]/c(c(C)c1C=C)=C\c1[n-]c(c(CCC(=O)O)c1C)/C=c1\[n-]/c(c(C)c1CCC(=O)O)=C\2.[Co] | > 74.1 | > 74.1 | 
35 | COP(=O)(OC)C(=O)c1ccccc1 | > 1150 | > 1150 | 
36 | CCCCCCCCCCCCCCCCCCSCC(C)(COP(=O)(O)OP(=O)(O)OCC1OC(n2cc(C)c(=O)[nH]c2=O)CC1N=[N+]=[N-])OC(=O)CCCCCCCCCCCCCCC (centres undefined) | 3.24 | 60.3 | 
37 | [N-]=[N+]=NC1=C(c2ccccn2)C(=O)c2cccc3cccc1c23 | > 200 | 4.17 | 
38 | CC(C)CCCC(C)[C@H]1CC[C@H]2[C@@H]3CC[C@H]4C[C@@H](CCC=C(c5cc(Cl)c(OCc6ccc([N+](=O)[O-])cc6)c(C(=O)O)c5)c5cc(Cl)c(OCc6ccc([N+](=O)[O-])cc6)c(C(=O)O)c5)CC[C@]4(C)[C@H]3CC[C@]12C (some centres undefined) | > 100 | > 100 | 
39 | Cc1cc(-c2ccc(N=Nc3c(S(=O)(=O)O)cc4cc(S(=O)(=O)O)cc(N)c4c3O)c(C)c2)ccc1N=Nc1c(S(=O)(=O)O)cc2cc(S(=O)(=O)O)cc(N)c2c1O | 34.7 | 132 | 
40 | c1ccc(-c2nc3nc4ccccc4nc3nc2-c2ccccn2)nc1 | > 53.7 | 10.7 | 
41 | N#Cc1ccc(Oc2cccc(N)c2)cc1C#N | > 214 | > 214 | 
42 | CCOC(=O)NC(=O)c1cn(CC(=O)NCC(=O)NCC(=O)N2CCN(CCn3c(C)nc(C(N)=O)c3N)CC2)c(=O)[nH]c1=O |  |  | inactive
43 | Cc1ccc(O)c(C(c2cc(C)ccc2O)c2cc([N+](=O)[O-])ccc2O)c1 |  |  | inactive
44 | O=C1CC[C@@H](S(=O)(=O)c2ccccc2)[C@@H](/C=C/c2ccccc2)O1 |  |  | inactive
45 | N#Cc1cccc(C2ON=C(c3ccc([N+](=O)[O-])cc3)N2C23CC4CC(CC(C4)C2)C3)c1 (centres undefined) | > 200 | > 200 | 
46 | O=S1c2ccccc2N=C(c2cccs2)CC1c1ccccc1O (centres undefined) | > 10.7 | > 10.7 | 
47 | CCOC(CCc1c(C)nc(NC(C)=O)[nH]c1=O)OCC | > 200 | > 200 | 
48 | O=C1c2ccccc2C(=O)N1/N=C\c1ccc([N+](=O)[O-])cc1 | > 24.5 | > 24.5 | 
49 | CCCN(CCC)c1nc2ccc(NC(=O)OCC)cc2s1 | > 42.7 | 32.4 | 
50 | CC(C)(C)c1cc(-c2cc(C(C)(C)C)[nH]n2)n[nH]1 | > 200 | > 200 | 

Row | Compound | EC50 [µM] | IC50 [µM] | outcome
51 | O=C(O)[C@@H]1[C@H](OCc2ccccc2)[C@H](OCc2ccccc2)CN1C(=O)OCc1ccccc1 | > 200 | 115 | 
52 | CC1OC(OC2C(O[C@H]3CC[C@@]4(C)C(=CC[C@H]5[C@@H]6C[C@@H]7O[C@](O)(CC[C@@H](C)COC8OC(CO)C(O)C(O)C8O)[C@@H](C)[C@@H]7[C@@]6(C)CC[C@@H]54)C3)OC(CO)C(O)C2OC2OC(CO)C(O)C(O)C2O)C(O)C(O)C1O (some centres undefined) | > 100 | 2.51 | 
53 | Cn1c2c(O)c(O)ccc2c(=O)c2c(O)cc3c(c21)C=CC(C)(C)O3 | > 200 | > 200 | 
54 | COc1cc(/C=C2\N=C(c3ccccc3)OC2=O)cc(OC)c1OC | > 21.4 | > 21.4 | 
55 | O=C1CN2C(c3ccccc3)=NN(c3ccc([N+](=O)[O-])cc3)C2(c2ccccc2)c2cc(Cl)ccc2N1CC1CC1 (centres undefined) | > 100 | > 100 | 
56 | N#C/C(c1nc2ccccc2[nH]1)=c1\s/c(=C(/N)O)c(=N)n1-c1ccccc1 | > 13.8 | > 13.8 | 
57 | COc1cccc(/C=C2/Sc3scc(-c4ccccc4)[n+]3C2=O)c1O | > 200 | 11.7 | 
58 | Oc1ccc(N=C2N=c3c(c4ccccc4c4ccccc34)=N2)c2ccccc12 | > 200 | 4.57 | 
59 | [N-]=[N+]=CC(=O)C1CCN(c2ccccc2)C1=O (centres undefined) | > 200 | > 200 | 
60 | COc1ccc(C(=O)C(C(=O)CCC(=O)Nc2ccc(C)c(C)c2)c2ccc(OC)cc2)cc1 (centres undefined) | > 21.9 | > 21.9 | 
61 | CC(C)(C)[Si](C)(C)OC[C@H]1O[C@@H](n2ccc(=O)[nH]c2=O)C(O[Si](C)(C)C(C)(C)C)[C@]12CCN(O)CO2 (some centres undefined) | > 200 | 11.5 | 
62 | CSc1nc(=O)cnn1C | > 200 | > 200 | 
63 | OCC1OC(c2cccc3cc(O)c(O)cc23)CC1O (centres undefined) | > 200 | 51.3 | 
64 | O=C(Nc1ccc(Cl)cc1)c1ccccc1[Se][Se]c1ccccc1C(=O)Nc1ccc(Cl)cc1 | 2.95 | 8.51 | 
65 | CCN(CC)c1ccc(N=Nc2ccc([N+](=O)[O-])cc2OC(=O)/C=C/c2ccccc2)c(OC(=O)/C=C/c2ccccc2)c1 | > 4.57 | 0.851 | 
66 | Nc1ncnc2c1ncn2CC(=O)NCCO | > 200 | > 200 | 
67 | Cn1cc(NC(=O)Nc2cc(C(=O)Nc3cc(C(=O)Nc4cc(C(=O)Nc5ccc(P(=O)(O)O)c6cc(P(=O)(O)O)ccc56)n(C)c4)n(C)c3)n(C)c2)cc1C(=O)Nc1cc(C(=O)Nc2cc(C(=O)Nc3ccc(P(=O)(O)O)c4cc(P(=O)(O)O)ccc34)n(C)c2)n(C)c1 | 1.29 | 37.2 | 
68 | C#CC1=CC(=O)C(OC)=CC1=O | > 200 | 31.6 | 
69 | O=C(CCCc1cccc2[nH]c3c(c12)CN(Cc1ccccc1)CC3)c1ccc(F)cc1 | > 200 | 14.5 | 
70 | CC1=C(C(=O)NNS(=O)(=O)c2ccc(C)cc2)CC(C(=O)NNS(=O)(=O)c2ccc(C)cc2)=C(C)N1 | > 13.5 | > 13.5 | 
71 | CS(=O)(=O)Oc1cccc(/C=N/N=C(\N)NO)c1 | > 214 | 36.3 | 
72 | O=C1/C(=C\c2cccc(Oc3ccccc3)c2)SC(c2ccccc2)N1c1ccccc1 (centres undefined) | > 20 | 0.0933 | 
73 | CSC(=Nc1ccccc1Cl)NC(=O)c1ccc(Br)cc1 | > 10.2 | > 10.2 | 
74 | O=[N+]([O-])c1ccc(N=NN2CCCC2)cc1 | > 200 | 18.6 | 
